US10874600B2, “Method for degrading bilirubin in skin” (The Procter & Gamble Company, priority 2018, dated 2020)

Assay: Bilirubin degradation assay
Assay type: biochemical
Settings: for Avg. IB at pH 3.8 / Avg. IB at pH 7.4: 25 μg/mL IB, 24-hr incubation at room temperature, average of triplicate; for Δ IB (actual): pH 3.8 vs reference value (pH 7.4, 0% niacinamide leg); for Δ IB (predicted): predicted additive effect of niacinamide at pH 7.4 plus observed pH effect 2.323
Method: The bilirubin degradation assay provides an in vitro method of determining how a material or composition affects bilirubin degradation. Three replicates of each test sample are prepared in a 96-well plate (e.g., a FALCON brand 96-well tissue culture plate or equivalent) at a total volume of 250 μl/well. A stock of 250 ug/ml indirect bilirubin (i.e., the unconjugated form of bilirubin most commonly found in blood serum) is made by dissolving bilirubin powder (Cayman Chemicals Company, Catalog #17161) in DMSO (Sigma, Catalog # D8414-100 ml) to yield a stock solution at 10× working concentration. Working concentration of bilirubin is set at 25 ug/ml for every well except negative/vehicle control wells. […] The positive control wells may be prepared by mixing 25 ul of 250 ug/ml bilirubin stock solution and 225 ul PBS (AccuGENE, Catalog #51225). For negative/vehicle control wells, 25 ul DMSO is used in place of bilirubin. Test sample wells contain 25 ul of 250 ug/ml bilirubin stock solution, 200 ul PBS and 25 ul of each treatment solution made as 10× concentrate stock, e.g., for 0.1% Niacinamide treatment, a 10× concentrate stock is made at 1%.
The pH of each sample is adjusted using 1M HCl pH titration is performed separately before the experiment set up to determine how much 1M HCl is needed for each leg to achieve targeting pH level. 1500 ul of a master working solution of each testing leg was made without bilirubin to accommodate threshold volume need for pH adjustment. The master solution for the vehicle control wells contain 150 ul DMSO and 1350 ul of a mixture of 1M HCl and PBS. […] Bilirubin is unstable when exposed to ambient light. Thus, for bilirubin positive control well pre-titration, DMSO was used as surrogate for bilirubin. […] For pre-titration test sample wells, 1500 ul of master solution is made by mixing 150 ul DMSO (surrogate for bilirubin stock), 150 ul 10× treatment stock, and a 1200 ul mixture of 1M HCl and PBS. For actual experimental set up, make: 1350 ul pre-mix in triplicate for each leg, less either DMSO (for vehicle control leg) or bilirubin (for positive control and treatment legs) but with matching volume of all other ingredients as determined by pre-titration. Then for vehicle control leg, add 25 ul DMSO per well followed by adding in 225 ul of the pre-mix. For all other legs, add 25 ul of 250 ug/ml bilirubin stock made in DMSO per well followed by adding in 225 ul of corresponding pre-mix. […] The plate(s) containing the test samples are covered with aluminum foil and placed on top of a microplate shaker (VWR, Catalog #12620-938). Incubation was carried out at room temperature for 24-hr with constant shaking at 150 rpm. […] Commercially available bilirubin quantification kit (Cell Biolab, Catalog # MET-5010) was used for bilirubin quantification. The assay is based on the Jendrassik-Grof method in which diazotized sulfanilic acid reacts with bilirubin to form azobilirubin, the latter of which can be detected at an OD of 540 nm. A standard bilirubin curve is generated using the same bilirubin used for treatment and quantified.
Bilirubin concentrations of all testing legs are calculated using linear regression against the standard bilirubin curve. Resulting bilirubin concentrations are compared to neutral pH bilirubin reference leg. The difference in bilirubin quantification (A bilirubin) between the neutral-pH bilirubin reference leg and the low-pH niacinamide treated legs can be analyzed for predicted effect and actual effect.
The effect of niacinamide level on bilirubin degradation was tested at 0.1%, 0.5%, and 3%, by weight, based on the volume of the composition (w/v). A vehicle control is used in this Example as the negative control.

## NC(=O)c1cccnc1 [niacinamide]
0.1% (w/v) niacinamide
  Avg. IB at pH 3.8: 17.713 μg/mL
  Avg. IB at pH 7.4: 20.851 μg/mL
  Δ IB (actual): 3.405
  Δ IB (predicted): 2.590
0.5% (w/v) niacinamide
  Avg. IB at pH 3.8: 14.231 μg/mL
  Avg. IB at pH 7.4: 20.185 μg/mL
  Δ IB (actual): 6.887
  Δ IB (predicted): 3.256
3% (w/v) niacinamide
  Avg. IB at pH 3.8: 9.585 μg/mL
  Avg. IB at pH 7.4: 17.087 μg/mL
  Δ IB (actual): 11.533
  Δ IB (predicted): 6.354
Niacinamide in low-pH composition vs observed individual effects of pH and niacinamide level
  reduction in bilirubin in the low-pH composition compared with predicted: much higher level than predicted
